Reference: US20040259766A1, “Use of glutamate, glutamate derivatives or metabolites, glutamate analogues or mixtures thereof for the manufacture of a composition for the treatment of osteoporosis” (priority 2004, published 2004)
Like-named read-outs stand apart in the source and are kept apart here. Marks after values point to notes of the source that are not given here. Residues, ends and D or L forms follow the SMILES beside them.

Tests used:
[1] = tested on: humerus and femur; experiment: Three point bending test (Instron 4302) of humerus and femur of piglets given Ala-Gln or AKG orally; format: in vivo, pig; details: piglets at 35 days of postnatal life; 0.4 g/kg b.w. oral once a day; mean ± SEM
Experimental: (§1) All piglets suckled sow milk before weaning. After weaning at the age of 28 days piglets were fed ad libitum with a standard mixture Premix prestarter (PP) (Food plant-Motycz, Poland) and free access to water was allowed. Piglets were allotted to three experimental trials:
(§2) 2—Second group, receiving 0.4 g/kg/b.w. of L-alanyl-L-glutamine (ala-gin), (2 ml solution/kg b.w.)
(§3) At the age of 35 days, piglets were sacrificed, eviscerated and bones were sampled.
(§4) Using Instron 4302 apparatus and applying three point bending test as presented in FIG. 1, the following properties of the bones were determined from curves showing the relation between load and deflection: […]

[2] = tested on: ribs; experiment: Three point bending test (Instron 4302) of ribs of piglets given Ala-Gln or AKG orally; format: in vivo, pig
Experimental: as §1, §2, §3, §4

[3] = tested on: humerus and femur; experiment: Architectural and geometric properties of humerus and femur of piglets; format: in vivo, pig; details: piglets at 35 days of postnatal life; 0.4 g/kg b.w. oral once a day; mean ± SEM
Experimental: as §1, §2, §3
(§5) Architectural and geometric properties of bone were estimated based on measurements of horizontal and vertical cross section as well as interior and exterior diameter of the bone.
(§6) Mean relative wall thickness (MRWT) expresses the ratio of wall to lumen measures and serves as an indicator in the process of architectural adaptation of bone to physiological stress during the growth of the body. When the lumen increases with unchanged wall thickness the MRWT decreases but bone resistance to strain increases.

[4] = tested on: ribs; experiment: Architectural and geometric properties of ribs of piglets; format: in vivo, pig; details: piglets at 35 days of postnatal life; 0.4 g/kg b.w. oral once a day; mean ± SEM
Experimental: as §1, §2, §3, §5, §6

[5] = tested on: femur; experiment: Femur bone mineral density in intact, shame operated and ovariectomized rats given AKG in drinking water; format: in vivo, Wistar rat; details: in all three groups (INT, SHO, OVX); 60 days of drinking water with AKG; p<0.01 in all groups
Excerpt: 60 female Wistar rats at the age of 2 months and with an initial bodyweight of 200 g are used.
The rats are divided into three groups (n=20), where Group 1 is shame operated, Group 2 is ovariectomized and Group 3 is intact, i.e. not operated at all.
20 of the rats are shame-operated (SHO), where the ovaries are exteriorised and replaced intact.
The second group of ovariectomized rats (OVX) are submitted to ovariectomy from a dorsal approach.
Six months after ovariectomy, the animals from group 1 and 2, are divided into two additional sub-groups; one placebo and one experimental group.
After 60 days with placebo and experimental drinking water the rats are anaesthetised in CO2 and femur isolated for further analysis of bone mineral density.

[6] = Gain of bodyweight of piglets during postnatal life; format: in vivo, pig
Experimental: as §1, §2, §3

[7] = tested on: right femur; experiment: Bone mineral density (DEXA) of the right femur of piglets; format: in vivo, pig; details: right femur proximal and distal metaphysis, 21 and 35 days (FIG. 17, 18)
Experimental: (§7) Bone mineral density (BMD) was analysed by DEXA (Dual Energy X-ray Absorptiometry) using LUNAR apparatus.

[8] = tested on: ulna bone; details: group A, 0.8 g/kg body weight oral
Experimental: During general anesthetic surgery, the ulnar is broken and optionally denervated. On the first day after operation saline, AKG or Ala-Gln is administered orally at a dose of 0.8 g/kg body weight in 2 ml.
After the experimental period, the turkeys will be weighed and sacrified in order to measure bone mineral density (BMD).
as §7

[9] = piglets at 35 days of postnatal life, 0.4 g/kg b.w. oral once a day, mean ± SEM

O=C(O)CCC(=O)C(=O)O [AKG, alpha-ketoglutaric acid]
Bone maximum elastic strength (Wy) femur [1]: 1042.9 ± 73.66 N | Bone maximum elastic strength (Wy) humerus [1]: 726.0 ± 37.73 N | Bone ultimate strength (Wf) femur [1]: 1123.0 ± 75.09 N | Bone ultimate strength (Wf) humerus [1]: 857.6 ± 45.42 N | Yielding stress of the 5th rib ([2]; 35-days-old piglets, versus control, FIG. 11): significant increase | Bone maximum elastic strength (Wy) (ribs 4-9) [2, 9]: 522.5 ± 17.97 N | Moment of ultimate strength ribs (4-9) [2, 9]: 737.445 ± 23.85 N | Ultimate strength (Wf) (ribs 4-9) [2, 9]: 585.1 ± 18.5 N | Cross-sectional area (A) femur [3]: 64.7 ± 3.82* mm^2 | Cross-sectional area (A) humerus [3]: 52.7 ± 4.1* mm^2 | Second moment of inertia (Ix) femur [3]: 696.5 ± 48.7* mm^4 | Second moment of inertia (Ix) humerus [3]: 459.4 ± 59.42* mm^4 | Cross sectional area (A) (ribs 4-9) [4]: 10.52 ± 0.35* mm^2 | MRWT (ribs 4-9) [4]: 0.60 ± 0.026 | Second moment of inertia (ribs 4-9) [4]: 15.42 ± 0.93* mm^4 | BMD, difference between AKG treated rats and placebo treated rats [5]: about 10% | Bodyweight of the piglets versus control group and Ala-Gln group ([6]; p>0.01 in comparison to Ala-Gln as printed): more dramatic | Bone mineralization versus piglets receiving placebo [7]: higher | BMD of the ulna bone, difference compared to saline treated turkeys ([8]; left wing control (intact), p<0.01): 25% | BMD of the ulna bone, difference compared to saline treated turkeys ([8]; right wing experimental (neurectomized, fracture of the ulnae), p<0.055): about 11%

C[C@H](N)C(=O)N[C@@H](CCC(N)=O)C(=O)O [Ala-Gln, L-alanyl-L-glutamine, reference compound] (H-Ala-Gln-OH)
Bone maximum elastic strength (Wy) femur [1]: 1016.8 ± 46.68 N | Bone maximum elastic strength (Wy) humerus [1]: 638.7 ± 9.91 N | Bone ultimate strength (Wf) humerus [1]: 743.0 ± 15.71∇ N | Mean relative wall thickness (MRWT) femur [3]: 0.88 ± 0.12 | Mean relative wall thickness (MRWT) humerus [3]: 0.64 ± 0.07 | Second moment of inertia (Ix) humerus [3]: 368.4 ± 24.31* mm^4 | MRWT (ribs 4-9) [4]: 0.70 ± 0.038 | Bodyweight difference (control group less than Ala-Gln treated group) ([6]; day 14, 0.4 g/kg b.w. oral): about 690 g | Bodyweight difference (control group less than Ala-Gln treated group) ([6]; day three, 0.4 g/kg b.w. oral): about 96 g
